{"source": "ChEMBL document CHEMBL3045930", "about": "“Study on the quantitative structuretoxicity relationships of aconitine compounds basing on PCA-ANN method” (Med Chem Res, 2013)", "data": [{"system": "Mus musculus", "assay": "Toxicity in po dosed Mus musculus (mouse)", "type": "organism-based", "set-up": "unit not given here", "conditions": "in vivo", "values": [{"smiles": "COC[C@@]12CC[C@H](OC)[C@]34C([C@@H]([C@H](OC)[C@H]13)[C@]1(OC(C)=O)[C@H]3[C@@H](OC(=O)c5ccccc5)[C@](O)(C[C@H]34)[C@@H](OC)[C@@H]1O)N(C)C2", "logLD50": -0.33}, {"smiles": "CCN1C[C@@H]2CC[C@H](OC)[C@]34C1[C@@H](C[C@H]23)[C@@]1(O)C[C@@H](OC)[C@@]2(O)C[C@@H]4[C@@H]1[C@H]2OC(=O)c1ccccc1", "logLD50": 1.45}, {"smiles": "CCN1C[C@]2(C)CC[C@H](OC)[C@@]34C1[C@@]1(OCO[C@@]15C[C@H](OC)[C@H]1C[C@]3(O)[C@@H]5[C@H]1OC)[C@@H](OC(C)=O)[C@H]24", "logLD50": 2.12}, {"smiles": "Br.CCN1C[C@]2(COC)[C@H](O)C[C@H](OC)[C@]34C1[C@@H]([C@H](OC)[C@H]23)[C@]1(OC(C)=O)[C@H]2[C@@H](OC(=O)c3ccccc3)[C@](O)(C[C@H]24)[C@@H](OC)[C@@H]1O", "logLD50": -0.87}, {"smiles": "CCN1C[C@]2(COC)CC[C@H](OC)[C@]34C1[C@@H](C[C@H]23)[C@@]1(O)C[C@H](OC)[C@H]2C[C@@H]4[C@@H]1[C@H]2O", "logLD50": -0.94}, {"smiles": "CCN1C[C@]2(COC(=O)c3ccccc3N3C(=O)C[C@H](C)C3=O)CC[C@H](OC)[C@]34C1[C@@](O)([C@@H](OC)[C@H]23)[C@@]1(O)C[C@H](OC)[C@H]2C[C@@H]4[C@@H]1[C@H]2OC", "logLD50": 0.48}, {"smiles": "CCN1C[C@]2(COC)[C@H](O)C[C@H](OC)[C@]34C1[C@@H]([C@H](OC)[C@H]23)[C@]1(OC(C)=O)[C@H]2[C@@H](OC(=O)c3ccccc3)[C@](O)(C[C@]24O)[C@@H](OC)[C@@H]1O", "logLD50": -0.66}, {"smiles": "CCN1C[C@@]2(COC)[C@H]3[C@@H](OC)[C@@H]4C1[C@]3([C@@H](OC)C[C@H]2OC(C)=O)[C@@H]1C[C@@]2(O)[C@H](OC(=O)c3ccccc3)[C@@H]1[C@]4(OC(C)=O)[C@@H](O)[C@@H]2OC", "logLD50": -0.4}, {"smiles": "Br.CCN1C[C@]2(COC)[C@H](O)C[C@H](OC)[C@]34C1[C@@H]([C@H](OC)[C@H]23)[C@]1(O)[C@H]2[C@@H](OC(=O)c3ccccc3)[C@](O)(C[C@H]24)[C@@H](OC)[C@@H]1O", "logLD50": 1.41}, {"smiles": "CCN1C[C@@]2(COC)[C@H]3[C@@H](OC)[C@@H]4C1[C@]3([C@@H](OC)C[C@H]2OC(C)=O)[C@@H]1C[C@@]2(OC(C)=O)[C@H](OC(=O)c3ccccc3)[C@@H]1[C@]4(OC(C)=O)[C@@H](OC(C)=O)[C@@H]2OC", "logLD50": 2.1}, {"smiles": "CCN1C[C@@]2(COC)[C@H]3[C@@H](OC)[C@@H]4C1[C@]3([C@@H](OC)C[C@H]2OC(C)=O)[C@@H]1C[C@@]2(OC(C)=O)[C@H](OC(C)=O)[C@@H]1[C@]4(OC(C)=O)[C@@H](OC(C)=O)[C@@H]2OC", "logLD50": 2.83}, {"smiles": "Br.COC[C@]12CN(C)C3[C@H]4[C@H](OC)[C@H]1[C@@]3([C@@H](OC)C[C@H]2O)[C@@H]1C[C@@]2(O)[C@H](OC(=O)c3ccccc3)[C@@H]1[C@]4(OC(C)=O)[C@@H](O)[C@@H]2OC", "logLD50": -0.95}, {"smiles": "COC[C@]12CN(C)C3[C@H]4[C@H](OC)[C@H]1[C@@]3([C@@H](OC)C[C@H]2O)[C@@H]1C[C@@]2(O)[C@H](OC(=O)c3ccccc3)[C@@H]1[C@]4(O)[C@@H](O)[C@@H]2OC", "logLD50": 1.32}, {"smiles": "Br.COC[C@]12CN(C)C3[C@H]4[C@H](OC)[C@H]1[C@@]3([C@@H](OC)C[C@H]2O)[C@@H]1C[C@@]2(O)[C@H](OC(=O)c3ccccc3)[C@@H]1[C@]4(O)[C@@H](O)[C@@H]2OC", "logLD50": 1.38}, {"smiles": "CCN1C[C@]2(COC)[C@H](O)C[C@H](OC)[C@]34C1[C@@H]([C@H](OC)[C@H]23)[C@@]1(O)C[C@H](OC)[C@@]2(O)C[C@@H]4[C@@H]1[C@H]2OC(=O)c1ccccc1", "logLD50": 2.15}, {"smiles": "CCN1C[C@@]2(COC)[C@H]3[C@@H](OC)[C@@H]4C1[C@]3([C@@H](OC)C[C@H]2OC(C)=O)[C@@H]1C[C@]2(O)[C@@H](OC)C[C@@]4(OC(C)=O)[C@H]1[C@H]2OC(=O)c1ccccc1", "logLD50": 3.16}, {"smiles": "CCN1C[C@@]2(COC)[C@H]3[C@@H](OC)[C@@H]4C1[C@]3([C@@H](OC)C[C@H]2OC(C)=O)[C@@H]1C[C@]2(OC(C)=O)[C@@H](OC)C[C@@]4(OC(C)=O)[C@H]1[C@H]2OC(=O)c1ccccc1", "logLD50": 1.34}, {"smiles": "CCN1C[C@@]2(COC)[C@H]3[C@@H](OC)[C@@H]4C1[C@]3([C@@H](OC)C[C@H]2OC(C)=O)[C@@H]1C[C@]2(OC(C)=O)[C@@H](OC)C[C@@]4(OC(C)=O)[C@H]1[C@H]2OC(C)=O", "logLD50": 2.18}, {"smiles": "Br.COC[C@@]12CC[C@H](OC)[C@]34C([C@@H]([C@H](OC)[C@H]13)[C@]1(OC(C)=O)[C@H]3[C@@H](OC(=O)c5ccccc5)[C@](O)(C[C@H]34)[C@@H](OC)[C@@H]1O)N(C)C2", "logLD50": -0.27}, {"smiles": "COC[C@@]12CC[C@H](OC)[C@]34C([C@@H]([C@H](OC)[C@H]13)[C@]1(O)[C@H]3[C@@H](OC(=O)c5ccccc5)[C@](O)(C[C@H]34)[C@@H](OC)[C@@H]1O)N(C)C2", "logLD50": 1.36}, {"smiles": "Br.COC[C@@]12CC[C@H](OC)[C@]34C([C@@H]([C@H](OC)[C@H]13)[C@]1(O)[C@H]3[C@@H](OC(=O)c5ccccc5)[C@](O)(C[C@H]34)[C@@H](OC)[C@@H]1O)N(C)C2", "logLD50": 1.41}, {"smiles": "CCN1C[C@]2(COC)CC[C@H](O)[C@]34C1[C@@](O)([C@@H](OC)[C@H]23)[C@@]1(O)C[C@H](OC)[C@H]2C[C@@H]4[C@@H]1[C@H]2OC.Cl", "logLD50": 2.07}, {"smiles": "CCN1C[C@]2(O)CC[C@H](OC)[C@]34C1[C@@H](C[C@H]23)[C@@]1(O)C[C@H](OC)[C@H]2C[C@@H]4[C@]1(O)[C@H]2OC", "logLD50": 2.15}, {"smiles": "CCN1C[C@]2(OC(=O)c3ccccc3NC(C)=O)CC[C@H](OC)[C@]34C1[C@@H](C[C@H]23)[C@@]1(O)C[C@H](OC)[C@H]2C[C@@H]4[C@]1(O)[C@H]2OC", "logLD50": 0.84}, {"smiles": "Br.CCN1C[C@]2(OC(=O)c3ccccc3NC(C)=O)CC[C@H](OC)[C@]34C1[C@@H](C[C@H]23)[C@@]1(O)C[C@H](OC)[C@H]2C[C@@H]4[C@]1(O)[C@H]2OC", "logLD50": 0.92}, {"smiles": "CCN1C[C@]2(OC(=O)c3ccccc3NC(C)=O)CC[C@H](OC)[C@]34C1[C@@H](C[C@H]23)[C@@]1(OC(C)=O)C[C@H](OC)[C@H]2C[C@@H]4[C@]1(OC(C)=O)[C@H]2OC", "logLD50": 1.16}, {"smiles": "CCN1C[C@]2(COC)CC[C@H](O)[C@]34C1[C@@](O)([C@@H](OC)[C@H]23)[C@@]1(O)C[C@H](OC)[C@H]2C[C@@H]4[C@@H]1[C@H]2O", "logLD50": 2.04}, {"smiles": "CCN1C[C@]2(COC)[C@H](O)C[C@H](OC)[C@]34C1[C@@H]([C@H](OC)[C@H]23)[C@@]1(OC(C)=O)C[C@H](OC)[C@@]2(O)C[C@@H]4[C@@H]1[C@H]2OC(=O)c1ccc(OC)c(OC)c1", "logLD50": 2.56}, {"smiles": "CCN1C[C@]2(COC)[C@H](O)C[C@H](OC)[C@]34C1[C@@H]([C@H](OC)[C@H]23)[C@]1(O)[C@H]2[C@@H](OC(=O)c3ccccc3)[C@](O)(C[C@H]24)[C@@H](OC)[C@@H]1O", "logLD50": 1}, {"smiles": "COC[C@]12CN(C)C3[C@H]4[C@H](OC)[C@H]1[C@@]3([C@@H](OC)C[C@H]2O)[C@@H]1C[C@@]2(O)[C@H](OC(=O)c3ccccc3)[C@@H]1[C@]4(OC(C)=O)[C@@H](OC)[C@@H]2O", "logLD50": -1}, {"smiles": "CCN1C[C@]2(COC)[C@H](O)C[C@H](OC)[C@]34C1[C@@H]([C@H](OC)[C@H]23)[C@@]1(OC(C)=O)C[C@H](OC)[C@@]2(O)C[C@@H]4[C@@H]1[C@H]2OC(=O)c1ccccc1", "logLD50": -0.33}, {"smiles": "CCN1C[C@]2(COC)[C@H](O)C[C@H](OC)[C@]34C1[C@@H]([C@H](OC)[C@H]23)[C@]1(OC(C)=O)[C@H]2[C@@H](OC(=O)c3ccccc3)[C@](O)(C[C@H]24)[C@@H](OC)[C@@H]1O", "note": "(stereo in doubt; 1)", "logLD50": -0.92}, {"smiles": "CCN1C[C@]2(COC)[C@H](O)C[C@H](OC)[C@]34C1[C@@H]([C@H](OC)[C@H]23)[C@]1(OC(C)=O)[C@H]2[C@@H](OC(=O)c3ccccc3)[C@](O)(C[C@H]24)[C@@H](OC)[C@@H]1O", "note": "(stereo in doubt; 12)", "logLD50": -0.78}, {"smiles": "CCN1C[C@]2(COC)CC[C@H](O)[C@]34C1[C@@](O)([C@@H](OC)[C@H]23)[C@@]1(O)C[C@H](OC)[C@H]2C[C@@H]4[C@@H]1[C@H]2OC", "note": "[DELSOLINE]", "logLD50": 2.24}, {"smiles": "CCN1C[C@]2(COC(=O)c3ccccc3N3C(=O)C[C@H](C)C3=O)CC[C@H](OC)[C@@]34C1[C@@]1(OCO[C@@]15C[C@H](OC)[C@H]1C[C@@H]3[C@@H]5[C@H]1OC)[C@@H](OC)[C@H]24", "note": "[ELATINE]", "logLD50": 0.7}, {"smiles": "CCN1C[C@]2(C)CC[C@H](O)[C@]34C1[C@@H](C[C@H]23)[C@@]1(O)C[C@H](OC)[C@H]2C[C@@H]4[C@@H]1[C@H]2O", "note": "[KARAKOLINE]", "logLD50": 1.71}]}]}
